Columns and labels:
adenosine receptors = adenosine receptors (Rattus norvegicus, UniProt P30543); experiment: EC50 at adenosine receptors measured at pH 7.4; assay type: biochemical
Source text: For the avoidance of doubt, the EC50 value of a compound is defined herein as the concentration of the compound that provokes a receptor response halfway between the baseline receptor response and the maximum receptor response (as determined, for example, using a dose-response curve).
The EC50 value should be determined under standard conditions (balanced salt solutions buffered to pH 7.4). […] The EC50 could also be determined in vivo by measuring adenosine receptor mediated responses in a normal healthy animal, or even in a tissue perfused under normal conditions (i.e. oxygenated blood, or oxygenated isotonic media, also buffered at pH 7.4) in a normal healthy animal.

[1] = system: carrageenan (CGN) induced thermal hyperalgesia; experiment: Carrageenan induced thermal hyperalgesia (CITH); assay type: in vivo; conditions: 0.624 mg/kg p.o.
Protocol: Carrageenan (2%, 10 microlitres) was administered into the right hind paw. A heat source was placed close to the treated and untreated hind paws, and the difference in the paw withdrawal latencies is shown. Spongosine was administered at the same time as carrageenan.

[2] = system: chronic constriction injury of the rat sciatic nerve; experiment: Chronic constriction injury model of neuropathic pain, thermal hyperalgesia; assay type: in vivo; conditions: 0.624 mg/kg p.o.
Source text: After approximately two weeks the rats developed thermal hyperalgesia in the operated leg as judged by the difference in paw withdrawal latencies of the right and left paws.

normal rats = experiment: Blood pressure and heart rate by implantable radiotelemetry; assay type: in vivo, rat; conditions: 0.624 mg/kg p.o.
Source text: An implantable radiotelemetry device was placed in the abdominal cavity of 6 rats per group. The pressure catheter of the device was inserted in the abdominal aorta and two electrodes tunnelised under the skin in a lead II position (left side of abdominal cavity/right shoulder). Individual rats were placed in their own cage on a radioreceptor (DSI) for data acquisition. A: blood pressure; B: heart rate.

[3] = Plasma concentration over time after administration; assay type: in vivo, rat
Protocol: It can be seen that the plasma concentration remains above 2% of the EC50 value for more than 3 hours.

[4] = system: static allodynia in a model of neuropathic pain; experiment: Static allodynia in a model of neuropathic pain (paw withdrawal threshold); assay type: in vivo
Protocol: Spongosine and gabapentin were administered (p.o.) in different proportions as indicated in the drawing. The total dose administered is shown on the horizontal axis, and the paw withdrawal threshold (PWT) on the vertical axis. The predicted anti-hyperalgesic effect (derived from the dose response curves obtained with each agent alone) if the effects of the two compounds are additive is shown (●). The observed effects are indicated by (▪).

[5] = system: normal physiological nociception; experiment: Normal physiological nociception after administration; assay type: in vivo
Source text: Compounds of formula (I) are believed to be effective in inhibiting pain perception in mammals suffering from pain, in particular neuropathic and inflammatory pain, even when administered at doses expected to give plasma concentrations well below those known to activate adenosine receptors. […] Therefore, compounds of formula (I) can treat pain (particularly neuropathic and inflammatory pain) without causing the significant side effects associated with administration of other adenosine receptor agonists, and also without reducing normal sensory perception.

rat A2A receptor = rat A2A receptor (Rattus norvegicus, UniProt P30543); conditions: read-out: EC50 for stimulation of the rat A2A receptor; cited from earlier work
rats = conditions: cited from earlier work

Chain of rat A2A receptor (P30543 whole entry): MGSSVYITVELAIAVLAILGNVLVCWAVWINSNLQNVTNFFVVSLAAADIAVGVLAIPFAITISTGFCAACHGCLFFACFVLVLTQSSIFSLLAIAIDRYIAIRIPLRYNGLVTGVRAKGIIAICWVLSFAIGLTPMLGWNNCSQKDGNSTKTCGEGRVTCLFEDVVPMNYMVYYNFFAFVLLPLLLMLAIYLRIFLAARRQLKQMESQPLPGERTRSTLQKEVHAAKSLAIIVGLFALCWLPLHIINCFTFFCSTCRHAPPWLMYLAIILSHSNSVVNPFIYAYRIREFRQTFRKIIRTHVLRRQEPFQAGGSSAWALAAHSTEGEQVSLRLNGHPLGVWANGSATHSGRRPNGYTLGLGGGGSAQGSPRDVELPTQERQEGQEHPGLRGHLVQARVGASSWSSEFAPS
Chain of adenosine receptors (P30543 whole entry): as above

Structure (SMILES)	EC50 (adenosine receptors) [nM]	Efficacy compared with indomethacin (3 mg/kg p.o.) in carrageenan induced thermal hyperalgesia [1]	Effect on carrageenan induced thermal hyperalgesia (difference in paw withdrawal latencies) ([1]; given at the same time as carrageenan (2%, 10 microlitres, right hind paw))	Effect on thermal hyperalgesia caused by chronic constriction injury (difference in paw withdrawal latencies) [2]	Efficacy compared with carbamazepine (CBZ, 100 mg/kg s.c.) in chronic constriction injury model [2]	Effect on blood pressure (normal rats)	Effect on heart rate (normal rats)	Blood pressure effect if the peak plasma concentration reaches the EC50 value ([3]; last for hours)	Time plasma concentration remains above 2% of the EC50 value ([3]; rat, 0.6 mg/kg)	Effect on static allodynia (paw withdrawal threshold, PWT) ([4]; 1.2 mg/kg p.o., in the presence and absence of naloxone (1 mg/kg s.c.))	Effect on static allodynia (paw withdrawal threshold, PWT) ([4]; p.o., Example 6)	Effect on normal physiological nociception [5]	EC50 (rat A2A receptor) [nM]	Biological activities in rats (rats)
COc1nc(N)c2ncn([C@@H]3O[C@H](CO)[C@@H](O)[C@H]3O)c2n1 [Spongosine, 2-methoxyadenosine]	3000	as effective as indomethacin	inhibits carrageenan (CGN) induced thermal hyperalgesia	inhibits thermal hyperalgesia	as, or more, effective than carbamazepine	no significant effect	no significant effect	profound reductions in blood pressure	more than 3 hours	inhibits static allodynia	inhibit static allodynia	no effect	3000	muscle relaxant, hypothermic, hypotensive, and anti-inflammatory activity
NCC1(CC(=O)O)CCCCC1 [gabapentin, reference compound]	–	–	–	–	–	–	–	–	–	–	inhibit static allodynia	–	–	–
